From US7465743B2, “Pyrazolo[3,4-b]pyridine compounds, and their use as PDE4 inhibitors” (Glaxo Group Limited, priority 2004, dated 2008)

Assays:
[1] = molecular target: T1, PDE4B (human recombinant) (Homo sapiens, UniProt Q07343); test: Inhibition of PDE4B activity (radioactive SPA assay or IMAP FP assay); assay type: biochemical; settings: specific Examples; for Selectivity (PDE4B/PDE5 EMR ratio, not log scale): ratio PDE4B vs PDE5, not log scale; for IC50: one reading or average of ca. 2-6 readings, read-out: PDE4B pIC50 (± about 0.5) (converted)
T1 construct: made in house
Excerpt: Human recombinant PDE4B, in particular the 2B splice variant thereof (HSPDE4B2B), is disclosed in WO 94/20079 and also M. M. McLaughlin et al., “A low Km, rolipram-sensitive, cAMP-specific phosphodiesterase from human brain: cloning and expression of cDNA, biochemical characterisation of recombinant protein, and tissue distribution of mRNA”, J. Biol. Chem., 1993, 268, 6470-6476. For example, in Example 1 of WO 94/20079, human recombinant PDE4B is described as being expressed in the PDE-deficient yeast Saccharomyces cerevisiae strain GL62, e.g. after induction by addition of 150 uM CuSO4, and 100,000×g supernatant fractions of yeast cell lysates are described for use in the harvesting of PDE4B enzyme.
(§1) Inhibition of PDE 3, PDE 4B, PDE 4D, PDE 5 or PDE 6 Activity: Radioactive Scintillation Proximity Assay (SPA)
(§2) The ability of compounds to inhibit catalytic activity at PDE4B or 4D (human recombinant), PDE3 (from bovine aorta), PDE5 (human recombinant) or PDE6 (from bovine retina) is determined by Scintillation Proximity Assay (SPA) in 96-well format. Test compounds (as a solution in DMSO, preferably about 2 microliter (ul) volume of DMSO solution) are preincubated at ambient temperature (room temperature, e.g. 19-23° C.) in Wallac Isoplates (code 1450-514) with PDE enzyme in 50 mM Tris-HCl buffer pH 7.5, 8.3 mM MgCl2, 1.7 mM EGTA, 0.05% (w/v) bovine serum albumin for 10-30 minutes (usually 30 minutes). The enzyme concentration is adjusted so that no more than 20% hydrolysis of the substrate defined below occurs in control wells without compound, during the incubation. For the PDE3, PDE4B and PDE4D assays, [5′,8-^3H]Adenosine 3′,5′-cyclic phosphate (Amersham Pharmacia Biotech, code TRK.559; or Amersham Biosciences UK Ltd, Pollards Wood, Chalfont St Giles, Buckinghamshire HP8 4SP, UK) is added to give 0.05 uCi per well and ˜10 nM final concentration. For the PDE5 and PDE6 assays, [8-^3H]Guanosine 3′,5′-cyclic phosphate (Amersham Pharmacia Biotech, code TRK.392) is added to give 0.05 uCi per well and ˜36 nM final concentration. Plates containing assay mixture, preferably approx. 100 ul volume of assay mixture, are mixed on an orbital shaker for 5 minutes and incubated at ambient temperature for 1 hour. Phosphodiesterase SPA beads (Amersham Pharmacia Biotech, code RPNQ 0150) are added (˜1 mg per well) to terminate the assay. Plates are sealed and shaken and allowed to stand at ambient temperature for 35 minutes to 1 hour (preferably 35 minutes) to allow the beads to settle. Bound radioactive product is measured using a WALLAC TRILUX 1450 Microbeta scintillation counter. For inhibition curves, 10 concentrations (1.5 nM-30 uM) of each compound are assayed. Curves are analysed using ActivityBase and XLfit (ID Business Solutions Limited, 2 Ocean Court, Surrey Research Park, Guildford, Surrey GU2 7QB, United Kingdom) Results are expressed as pIC50 values.
Inhibition of PDE4B or PDE4D Activity: Fluorescence Polarisation (FP) Assay
The ability of compounds to inhibit catalytic activity at PDE4B (human recombinant) or PDE4D (human recombinant) is determined by IMAP Fluorescence Polarisation (FP) assay (IMAP Explorer kit, available from Molecular Devices Corporation, Sunnydale, Calif., USA; Molecular Devices code: R8062) in 384-well format. The IMAP FP assay is able to measure PDE activity in an homogenous, non-radioactive assay format. The FP assay uses the ability of immobilised trivalent metal cations, coated onto nanoparticles (tiny beads), to bind the phosphate group of Fl-AMP that is produced on the hydrolysis of fluorescein-labelled (Fl) cyclic adenosine mono-phosphate (Fl-cAMP) to the non-cyclic Fl-AMP form. […] Binding of Fl-AMP product to the beads (coated with the immobilised trivalent cations) slows the rotation of the bound Fl-AMP and leads to an increase in the fluorescence polarisation ratio of parallel to perpendicular light. Inhibition of the PDE reduces/inhibits this signal increase. […]

[2] = molecular target: PDE5 (human recombinant) (Homo sapiens, UniProt O76074); test: Inhibition of PDE5 activity (radioactive SPA assay); assay type: biochemical; settings: specific Examples; one reading or average of ca. 2-6 readings; read-out: PDE5 pIC50 (± about 0.5) (converted)
Excerpt: Human recombinant PDE5 is disclosed in K. Loughney et al., “Isolation and characterisation of cDNAs encoding PDE5A, a human cGMP-binding, cGMP-specific 3′,5′-cyclic nucleotide phosphodiesterase”, Gene, 1998, 216, 139-147.
as §1, §2
Biological Data obtained for some of the Examples (PDE4B and/or PDE5 inhibitory activity, either as one reading or as an average of ca. 2-6 readings) are as follows, based on current measurements only. In each of the SPA and FP assays, absolute accuracy of measurement is not possible, and the readings given are accurate only up to about ±0.5 of a log unit, depending on the number of readings made and averaged: […]

[3] = test system: conscious ferret (emesis); test: In Vivo Assay 4: emetic episodes in the conscious ferret after oral PDE4 inhibitor; therapeutic index; parameters: species or system ferret (Mustela Pulorius Furo); settings: p.o.
Experimental: (§3) In Vivo Assay 4. Evaluation of Therapeutic Index of Orally-administered PDE 4 inhibitors in the conscious ferret
(§4) PDE4 inhibitors are prepared for oral (p.o.) administration by dissolving in a fixed volume (1 ml) of acetone and then adding cremophor to 20% of the final volume. Acetone is evaporated by directing a flow of nitrogen gas onto the solution. Once the acetone is removed, the solution is made up to final volume with distilled water. LPS is dissolved in phosphate buffered saline.
Male ferrets (Mustela Pulorius Furo, weighing 1-2 kg) are transported and allowed to acclimatise for not less than 7 days. […]
(§5) PDE4 inhibitors are administered orally (p.o.), using a dose volume of 1 ml/kg. […] The animals are constantly observed and any emetic episodes (retching and vomiting) or behavioural changes are recorded. […]
(§6) Thirty minutes after oral dosing with compound or vehicle control, the ferrets are placed into sealed perspex containers and exposed to an aerosol of LPS (30 μg/ml) for 10 minutes. […] All emetic episodes and behavioural changes are recorded.
b) Emetic episodes—the number of vomits and retches are counted to determine the dose of PDE4 inhibitor that gives a 20% incidence of emesis (D20).
c) A therapeutic index (TI), using this assay, is then calculated for each PDE4 inhibitor using the following equation: […]

[4] = test system: LPS-induced pulmonary neutrophilia; test: In Vivo Assay 4: LPS-induced pulmonary neutrophilia in the conscious ferret; parameters: species or system ferret (Mustela Pulorius Furo); settings: p.o.
Experimental: as §3, §4
Male ferrets (Mustela Pulorius Furo, weighing 1-2 kg) are transported and allowed to acclimatise for not less than 7 days. The diet comprises SDS diet C pelleted food given ad lib with Whiskers™ cat food given 3 times per week. […]
as §5, §6
Six hours after LPS exposure the animals are killed by overdose of sodium pentobarbitone administered intraperitoneally. […] From this, the total number of neutrophils in the BAL sample is determined. […]

T1 sequence (Q07343 1-564 isoform Q07343-2): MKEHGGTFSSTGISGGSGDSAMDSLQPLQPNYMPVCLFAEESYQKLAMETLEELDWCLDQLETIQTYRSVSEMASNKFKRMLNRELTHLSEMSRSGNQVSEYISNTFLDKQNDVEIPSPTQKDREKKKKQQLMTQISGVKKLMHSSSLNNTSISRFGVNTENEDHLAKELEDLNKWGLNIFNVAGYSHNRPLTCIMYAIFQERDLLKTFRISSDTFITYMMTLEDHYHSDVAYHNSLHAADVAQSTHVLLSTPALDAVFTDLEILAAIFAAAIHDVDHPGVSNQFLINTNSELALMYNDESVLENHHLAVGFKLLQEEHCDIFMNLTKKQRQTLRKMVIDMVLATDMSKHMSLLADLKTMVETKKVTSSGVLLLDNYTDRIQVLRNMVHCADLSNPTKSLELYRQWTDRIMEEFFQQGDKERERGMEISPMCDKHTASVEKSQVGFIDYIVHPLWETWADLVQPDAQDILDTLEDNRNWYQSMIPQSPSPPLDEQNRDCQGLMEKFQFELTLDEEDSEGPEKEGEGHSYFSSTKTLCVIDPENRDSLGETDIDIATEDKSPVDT

Row | Selectivity (PDE4B/PDE5 EMR ratio, not log scale) [1] | IC50 [1] [nM] | IC50 [2] [nM] | SMILES | D20 for emesis (dose that gives a 20% incidence of emesis) [3] | D50 for ferret neutrophilia (dose which gives 50% inhibition of LPS-induced pulmonary neutrophilia) [4]
1 | 2 | 158 | 398 | CCCCNC(=O)c1cnc2c(cnn2CC)c1NCCCC [4-butylamino-1-ethyl-pyrazolo[3,4-b]pyridine-5-(N-butyl)carboxamide, reference compound] | – | –
2 | 21 | 200 | 5010 | CCC(C)Nc1c(C(=O)Nc2ccccc2)cnc2c1cnn2C(C)C (stereo not drawn) [Comparative Example 61, reference compound] | – | –
3 | 66 | 15.8 | 1000 | CCn1ncc2c(N[C@H](C)C(C)C)c(C(=O)NCc3ccccc3)cnc21 [Example 1, N-Benzyl-4-{[(1R)-1,2-dimethylpropyl]amino}-1-ethyl-1H-pyrazolo[3,4-b]pyridine-5-carboxamide] | – | –
4 | 135 | 63.1 | 7940 | CCn1ncc2c(N[C@H](C)C(C)C)c(C(=O)Nc3ccc(F)cc3)cnc21 [Example 2, 4-{[(1R)-1,2-Dimethylpropyl]amino}-1-ethyl-N-(4-fluorophenyl)-1H-pyrazolo[3,4-b]pyridine-5-carboxamide] | – | –
5 | 501 | 20 | 10000 | CCn1ncc2c(N[C@@H](C)C(C)C)c(C(=O)NCc3ccccc3)cnc21 [Example 38, N-Benzyl-4-{[(1S)-1,2-dimethylpropyl]amino}-1-ethyl-1H-pyrazolo[3,4-b]pyridine-5-carboxamide] | – | –
6 | ≧468 | 63.1 | > 30200 | CCn1ncc2c(N[C@@H](C)C(C)C)c(C(=O)Nc3ccc(F)cc3)cnc21 [Example 39, 4-{[(1S)-1,2-Dimethylpropyl]amino}-1-ethyl-N-(4-fluorophenyl)-1H-pyrazolo[3,4-b]pyridine-5-carboxamide] | – | –
7 | 437 | 7.94 | 3980 | CCC(CC)CNC(=O)c1cnc2c(cnn2CC)c1N[C@@H](C)C(C)C [Example 51, 4-{[(1S)-1,2-Dimethylpropyl]amino}-1-ethyl-N-(2-ethylbutyl)-1H-pyrazolo[3,4-b]pyridine-5-carboxamide] | – | –
8 | 240 | 15.8 | 3980 | CCn1ncc2c(NC(C)(C)C)c(C(=O)NCc3ccccc3)cnc21 [Example 53, 4-(tert-Butylamino)-1-ethyl-N-benzyl-1H-pyrazolo[3,4-b]pyridine-5-carboxamide] | – | –
9 | ≧309 | 100 | > 30200 | CCn1ncc2c(NC(C)(C)C)c(C(=O)Nc3ccc(F)cc3)cnc21 [Example 54, 4-(tert-Butylamino)-1-ethyl-N-(4-fluorophenyl)-1H-pyrazolo[3,4-b]pyridine-5-carboxamide] | – | –
10 | – | 15.8 to 63.1 | 631 to 3160 | CC[C@@H](C)Nc1c(C(=O)NCc2ccccc2)cnc2c1cnn2CC [compound 58, reference compound] | – | –
11 | – | 15.8 to 63.1 | 631 to 3160 | CC[C@H](C)Nc1c(C(=O)NCc2ccccc2)cnc2c1cnn2CC [compound 59, reference compound] | – | –
12 | – | – | – | O=C(Nc1c(Cl)cncc1Cl)c1ccc(OC(F)F)c(OCC2CC2)c1 [roflumilast] | about 0.46 mg/kg | about 0.42 mg/kg
